Patent publication US20220071971A1, “MACROCYCLIC COMPOUNDS AND THEIR USE IN THE TREATMENT OF DISEASE” (NOVARTIS AG, priority 2018, published 2022)

Target: T1, delF508-CFTR (Homo sapiens, UniProt P13569, DEL508-508)
T1 construct: expressed in transfected cells
Experiment: Measurement of delF508-CFTR-HRP surface expression in CFBE41o- cells
Type: cell-based
Conditions: for Emax: CFBE41o-, efficacy relative to reference compound 3-(6-(1-(2,2-difluorobenzo[d][1,3]dioxol-5-yl)cyclopropane-1-carboxamido)-3-methylpyridin-2-yl)benzoic acid, read-out: DelF508-CFTR-HRP Amax %; for EC50: HRP-tagged delF508-CFTR surface expression, CFBE41o- cells, 24 h with compound, 10-point curve, highest concentration 10 μM
How it was run: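 CFBE41o- cells stably expressing delF508-CFTR with HRP in the fourth extracellular loop, induced 48 h with 500 ng/mL doxycycline, then exposed to compound (10-point, 3-fold, top 10 μM, ≤0.5% DMSO) for 24 h at 37° C. Surface HRP read by luminescence with cell-impermeant substrate; EC50 by logistic fit, triplicates, efficacy relative to reference corrector.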

T1 sequence (P13569 with tags, fused parts or gaps DEL508-508): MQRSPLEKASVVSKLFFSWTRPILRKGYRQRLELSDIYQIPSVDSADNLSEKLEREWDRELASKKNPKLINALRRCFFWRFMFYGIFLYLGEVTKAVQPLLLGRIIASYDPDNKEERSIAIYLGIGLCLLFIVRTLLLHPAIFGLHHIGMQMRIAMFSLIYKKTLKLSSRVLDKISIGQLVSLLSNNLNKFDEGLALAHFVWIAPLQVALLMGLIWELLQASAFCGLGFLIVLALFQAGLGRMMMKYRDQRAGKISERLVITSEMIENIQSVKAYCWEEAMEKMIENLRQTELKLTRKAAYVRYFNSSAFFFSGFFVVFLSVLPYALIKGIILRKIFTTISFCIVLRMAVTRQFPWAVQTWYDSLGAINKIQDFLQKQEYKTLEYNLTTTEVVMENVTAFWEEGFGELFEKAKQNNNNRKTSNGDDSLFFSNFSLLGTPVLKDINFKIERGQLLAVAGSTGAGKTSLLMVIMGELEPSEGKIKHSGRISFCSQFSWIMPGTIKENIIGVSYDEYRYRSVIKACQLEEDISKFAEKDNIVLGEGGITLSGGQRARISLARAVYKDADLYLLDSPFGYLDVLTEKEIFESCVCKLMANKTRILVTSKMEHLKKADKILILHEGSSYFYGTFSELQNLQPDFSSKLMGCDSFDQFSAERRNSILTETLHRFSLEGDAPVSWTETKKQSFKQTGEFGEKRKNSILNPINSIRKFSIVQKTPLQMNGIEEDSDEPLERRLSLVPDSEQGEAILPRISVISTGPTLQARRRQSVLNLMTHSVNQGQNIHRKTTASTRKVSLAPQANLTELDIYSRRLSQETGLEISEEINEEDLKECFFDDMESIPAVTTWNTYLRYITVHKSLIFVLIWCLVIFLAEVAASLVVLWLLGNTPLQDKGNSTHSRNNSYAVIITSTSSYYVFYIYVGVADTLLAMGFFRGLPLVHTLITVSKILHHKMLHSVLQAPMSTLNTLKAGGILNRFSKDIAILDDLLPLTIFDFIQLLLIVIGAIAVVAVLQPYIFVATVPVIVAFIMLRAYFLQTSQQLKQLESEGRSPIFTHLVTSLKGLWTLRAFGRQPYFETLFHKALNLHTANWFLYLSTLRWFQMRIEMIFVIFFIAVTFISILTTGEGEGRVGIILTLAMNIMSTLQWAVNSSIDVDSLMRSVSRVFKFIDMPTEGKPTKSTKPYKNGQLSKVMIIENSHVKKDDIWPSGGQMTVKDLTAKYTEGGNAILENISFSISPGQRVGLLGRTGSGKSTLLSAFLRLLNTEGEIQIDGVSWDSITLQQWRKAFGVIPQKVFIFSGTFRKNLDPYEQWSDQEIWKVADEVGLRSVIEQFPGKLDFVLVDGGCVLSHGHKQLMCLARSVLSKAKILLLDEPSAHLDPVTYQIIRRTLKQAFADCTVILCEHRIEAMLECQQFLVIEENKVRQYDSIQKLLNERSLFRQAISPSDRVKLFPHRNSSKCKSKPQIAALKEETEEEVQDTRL

For `O=S1(=O)Nc2ccc(C(F)(F)F)c(n2)-c2cccnc2OCCCCCOc2cccc1n2` [Compound 103, 2^3-(trifluoromethyl)-6,12-dioxa-4-thia-3-aza-1(3,2),2,5(2,6)-tripyridinacyclododecaphane 4,4-dioxide], the Emax was 197% and the EC50 was 1380 nM.

With `O=S1(=O)Nc2ccc(C(F)(F)F)c(n2)-c2cccnc2O[C@H]2CCC[C@H](CCC2)Oc2cccc1n2` [Compound 104, (4^1s,4^5s)-1^3-(trifluoromethyl)-3,5-dioxa-7-thia-8-aza-1,6(2,6),2(3,2)-tripyridina-4(1,5)-cyclooctanacyclooctaphane 7,7-dioxide] the Emax was 205% and the EC50 was 226 nM.

`O=S1(=O)Nc2ccc(Cl)c(n2)-c2cccnc2NCCCCCNc2cccc1n2` [Compound 105, 2^3-chloro-4-thia-3,6,12-triaza-1(3,2),2,5(2,6)-tripyridinacyclododecaphane 4,4-dioxide] was tested, and the Emax was 178% and the EC50 was 2220 nM.

Compound `Cc1ccnc2c1-c1nc(ccc1Cl)NS(=O)(=O)c1cccc(n1)NCCCCCN2` [Compound 106, 2^3-chloro-1^4-methyl-4-thia-3,6,12-triaza-1(3,2),2,5(2,6)-tripyridinacyclododecaphane 4,4-dioxide] has an Emax of 287% and an EC50 of 1410 nM.

Compound `O=S1(=O)Nc2ccc(Cl)c(n2)-c2cccnc2OCCCCCNc2cccc1n2` [Compound 107, 2^3-chloro-12-oxa-4-thia-3,6-diaza-1(3,2),2,5(2,6)-tripyridinacyclododecaphane 4,4-dioxide] has an Emax of 169% and an EC50 of 1260 nM.

`O=S1(=O)Nc2ccc(C(F)(F)F)c(n2)-c2cccnc2OCCCCCNc2cccc1n2` [Compound 108, 2^3-(trifluoromethyl)-1^2-oxa-4-thia-3,6-diaza-1(3,2),2,5(2,6)-tripyridinacyclododecaphane 4,4-dioxide] was tested, and the Emax was 443% and the EC50 was 1270 nM.

With `O=S1(=O)Nc2ccc(C(F)(F)F)c(n2)-c2ccccc2CCCCC(CCCO)Oc2cccc1n2` (stereo not drawn) [Compound 109, 7-(3-hydroxypropyl)-2^3-(trifluoromethyl)-6-oxa-4-thia-3-aza-2,5(2,6)-dipyridina-1(1,2)-benzenacycloundecaphane 4,4-dioxide] the Emax was 186% and the EC50 was 386 nM.

Work on `O=C(O)CCC1CCCCc2ccccc2-c2nc(ccc2C(F)(F)F)NS(=O)(=O)c2cccc(n2)O1` (stereo not drawn) [Compound 110, 3-(4,4-dioxido-2^3-(trifluoromethyl)-6-oxa-4-thia-3-aza-2,5(2,6)-dipyridina-1(1,2)-benzenacycloundecaphane-7-yl)propanoic acid] yielded an Emax of 170% and an EC50 of 477 nM.

`O=S1(=O)Nc2ccc(Cl)c(n2)-c2ccccc2CCCCCCOc2cccc1n2` [Compound 111, 2^3-chloro-6-oxa-4-thia-3-aza-2,5(2,6)-dipyridina-1(1,2)-benzenacyclododecaphane 4,4-dioxide] was tested, and the EC50 was 1060 nM.

`O=S1(=O)Nc2ccc(Cl)c(n2)-c2ccccc2CCCCOc2cccc1n2` [Compound 112, 2^3-chloro-6-oxa-4-thia-3-aza-2,5(2,6)-dipyridina-1(1,2)-benzenacyclodecaphane 4,4-dioxide] was tested, and the Emax was 644% and the EC50 was 2600 nM.

In the case of `O=S1(=O)Nc2ccc(Cl)c(n2)-c2ccccc2CCCCCOc2cccc1n2` [Compound 113, 2^3-chloro-6-oxa-4-thia-3-aza-2,5(2,6)-dipyridina-1(1,2)-benzenacycloundecaphane 4,4-dioxide], the Emax is reported as 664% and the EC50 is reported as 2150 nM.

Compound `O=S1(=O)Nc2ccc(Cl)c(n2)-c2ccccc2CCCOc2cccc1n2` [Compound 114, 2^3-chloro-6-oxa-4-thia-3-aza-2,5(2,6)-dipyridina-1(1,2)-benzenacyclononaphane 4,4-dioxide] has an Emax of 97.1% and an EC50 of 3310 nM.

`O=S1(=O)Nc2ccc(C(F)(F)F)c(n2)-c2ccccc2CCCCNc2cccc1n2` [Compound 115, 2^3-(trifluoromethyl)-4-thia-3,6-diaza-2,5(2,6)-dipyridina-1(1,2)-benzenacyclodecaphane 4,4-dioxide] gave an Emax of 430% and an EC50 of 456 nM.

Work on `O=S1(=O)Nc2ccc(C(F)(F)F)c(n2)-c2ccccc2CCCCN(CCO)c2cccc1n2` [Compound 116, 6-(2-hydroxyethyl)-2^3-(trifluoromethyl)-4-thia-3,6-diaza-2,5(2,6)-dipyridina-1(1,2)-benzenacyclodecaphane 4,4-dioxide] yielded an Emax of 737% and an EC50 of 445 nM.

In the case of `O=S1(=O)Nc2ccc(C(F)(F)F)c(n2)-c2ccccc2CCCCCNc2cccc1n2` [Compound 118, 2^3-(trifluoromethyl)-4-thia-3,6-diaza-2,5(2,6)-dipyridina-1(1,2)-benzenacycloundecaphane 4,4-dioxide], the Emax is reported as 705% and the EC50 is reported as 511 nM.

In the case of `O=S1(=O)Nc2ccc(C(F)(F)F)c(n2)-c2ccccc2CCCOCCNc2cccc1n2` [Compound 119, 2^3-(trifluoromethyl)-9-oxa-4-thia-3,6-diaza-2,5(2,6)-dipyridina-1(1,2)-benzenacyclododecaphane 4,4-dioxide], the Emax is reported as 356% and the EC50 is reported as 866 nM.

Work on `O=C(O)CN1CCCCCCc2ccccc2-c2nc(ccc2C(F)(F)F)NS(=O)(=O)c2cccc1n2` [Compound 120, 2-(4,4-dioxido-2^3-(trifluoromethyl)-4-thia-3,6-diaza-2,5(2,6)-dipyridina-1(1,2)-benzenacyclododecaphane-6-yl)acetic acid] yielded an Emax of 949% and an EC50 of 1410 nM.

With `O=S1(=O)Nc2ccc(C(F)(F)F)c(n2)-c2ccccc2CCCCCN(CCN2CCNCC2)c2cccc1n2` [Compound 121, 6-(2-(piperazin-1-yl)ethyl)-2^3-(trifluoromethyl)-4-thia-3,6-diaza-2,5(2,6)-dipyridina-1(1,2)-benzenacycloundecaphane 4,4-dioxide] the Emax was 348% and the EC50 was 495 nM.

`O=S1(=O)Nc2ccc(C(F)(F)F)c(n2)-c2ccccc2CCCCCN(CCN2CCCC2)c2cccc1n2` [Compound 122, 6-(2-(pyrrolidin-1-yl)ethyl)-2^3-(trifluoromethyl)-4-thia-3,6-diaza-2,5(2,6)-dipyridina-1(1,2)-benzenacycloundecaphane 4,4-dioxide] gave an Emax of 226% and an EC50 of 1220 nM.

`O=S1(=O)Nc2ccc(C(F)(F)F)c(n2)-c2ccccc2CCCCCN(CCN2C[C@H](O)[C@@H](O)C2)c2cccc1n2` [Compound 123, 6-(2-((3S,4S)-3,4-dihydroxypyrrolidin-1-yl)ethyl)-2^3-(trifluoromethyl)-4-thia-3,6-diaza-2,5(2,6)-dipyridina-1(1,2)-benzenacycloundecaphane 4,4-dioxide] showed an Emax of 308% and an EC50 of 1840 nM.

Work on `O=S1(=O)Nc2ccc(C(F)(F)F)c(n2)-c2ccccc2CCCCCN(CCN2CC(O)C2)c2cccc1n2` [Compound 124, 6-(2-(3-hydroxyazetidin-1-yl)ethyl)-2^3-(trifluoromethyl)-4-thia-3,6-diaza-2,5(2,6)-dipyridina-1(1,2)-benzenacycloundecaphane 4,4-dioxide] yielded an Emax of 382% and an EC50 of 1640 nM.

`CN1CCN(CCN2CCCCCc3ccccc3-c3nc(ccc3C(F)(F)F)NS(=O)(=O)c3cccc2n3)CC1` [Compound 125, 6-(2-(4-methylpiperazin-1-yl)ethyl)-2^3-(trifluoromethyl)-4-thia-3,6-diaza-2,5(2,6)-dipyridina-1(1,2)-benzenacycloundecaphane 4,4-dioxide] gave an Emax of 162% and an EC50 of 931 nM.

Work on `COC(=O)CNCCN1CCCCCc2ccccc2-c2nc(ccc2C(F)(F)F)NS(=O)(=O)c2cccc1n2` [Compound 126, methyl (2-(4,4-dioxido-2^3-(trifluoromethyl)-4-thia-3,6-diaza-2,5(2,6)-dipyridina-1(1,2)-benzenacycloundecaphane-6-yl)ethyl)glycinate] yielded an Emax of 488% and an EC50 of 831 nM.

In the case of `O=C(O)CNCCN1CCCCCc2ccccc2-c2nc(ccc2C(F)(F)F)NS(=O)(=O)c2cccc1n2` [Compound 127, (2-(4,4-dioxido-2^3-(trifluoromethyl)-4-thia-3,6-diaza-2,5(2,6)-dipyridina-1(1,2)-benzenacycloundecaphane-6-yl)ethyl)glycine], the Emax is reported as 93.6% and the EC50 is reported as 3630 nM.

With `O=S1(=O)Nc2ccc(C(F)(F)F)c(n2)-c2ccccc2CCCCCN(CC(O)CO)c2cccc1n2` (stereo not drawn) [Compound 128, 6-(2,3-dihydroxypropyl)-2^3-(trifluoromethyl)-4-thia-3,6-diaza-2,5(2,6)-dipyridina-1(1,2)-benzenacycloundecaphane 4,4-dioxide] the Emax was 435% and the EC50 was 275 nM.

`O=S1(=O)Nc2ccc(C(F)(F)F)c(n2)-c2ccccc2CCCCCN(C[C@H](O)[C@@H](O)CO)c2cccc1n2` [Compound 129, 2^3-(trifluoromethyl)-6-((2S,3S)-2,3,4-trihydroxybutyl)-4-thia-3,6-diaza-2,5(2,6)-dipyridina-1(1,2)-benzenacycloundecaphane 4,4-dioxide] gave an Emax of 506% and an EC50 of 265 nM.

`NCCN1CCCCc2ccccc2-c2nc(ccc2C(F)(F)F)NS(=O)(=O)c2cccc1n2` [Compound 130, 6-(2-aminoethyl)-2^3-(trifluoromethyl)-4-thia-3,6-diaza-2,5(2,6)-dipyridina-1(1,2)-benzenacyclodecaphane 4,4-dioxide] was tested, and the Emax was 188% and the EC50 was 2440 nM.

With `O=S1(=O)Nc2ccc(C(F)(F)F)c(n2)-c2ccccc2CCCCNCCNc2cccc1n2` [Compound 131, 2^3-(trifluoromethyl)-4-thia-3,6,9-triaza-2,5(2,6)-dipyridina-1(1,2)-benzenacyclotridecaphane 4,4-dioxide] the Emax was 30.7% and the EC50 was 3900 nM.

`NCCN1CCCCCc2ccccc2-c2nc(ccc2C(F)(F)F)NS(=O)(=O)c2cccc1n2` [Compound 132, 6-(2-aminoethyl)-2^3-(trifluoromethyl)-4-thia-3,6-diaza-2,5(2,6)-dipyridina-1(1,2)-benzenacycloundecaphane 4,4-dioxide] was tested, and the Emax was 259% and the EC50 was 2670 nM.
